The values below come from patent US20220280558A1, “MOLECULAR HYDROGEN-CONTAINING COMPOSITION FOR PREVENTING OR IMPROVING OSTEOPOROSIS” (MiZ Company Limited, priority 2021, published 2022).

The subject of this assay is human osteoporosis. The experiment in a line: Case 1: bone density and symptoms of a person with compression fractures. The format is in vivo. Particulars: human patient. The text has this: In the present specification, bone density can be measured by an existing measuring method, for example, by dual-energy-x-ray absorptiometry (DXA) of the trunk bone.
The mark [1] stands for this setting: hydrogen gas inhalation 1.5% to 2.0% by volume.

With “denosumab [Pralia Subcutaneous Injection, reference compound]”, the bone density result (baseline 74%, injection once every six months, 18 months later) is “exceeded 80%”; the bone density (injection once every six months, August 2020) is 84%; the bone density (injection once every six months, February 2020) is 86%.

Regarding `[HH]` [hydrogen gas, molecular hydrogen], under setting [1], the body feeling entry was “feeling that the body became light”; the “daily activity (weeding in the garden)” value was “weeding in the garden becoming easy”; the “feeling when waking up in the morning” value was “having a good feeling and feeling refreshed”; the gait result was “improvement in the gait”. Moreover, under setting [1], the “pain at the compression fracture sites in the lower back” value is “improvement” and the tiredness result was “feeling tired less easily”. For the same molecule, the bone density (inhalation from November 2020, 1.5% to 2.0% by volume hydrogen, 30 mL/min, nightly, measured March 2021 (84% in August 2020)) stood at 92%.
